Molecules are shown by their SMILES. Inconclusive results and toxic doses are left out.

The test system of this assay is BDF1 mice, P388 leukemia ip, median survival T/C. Briefly: NCI In Vivo Anticancer Drug Screen. Data for tumor model P388 Leukemia (intraperitoneal) in B6D2F1 (BDF1) mice. The conditions noted are these: endpoint: median survival time, higher = longer survival. The procedure:
The antitumor activity of compounds was measured in mice bearing transplantable tumors. Survival or tumor size were measured and the results are expressed as the measurement made in the treated group (T) divided by the measurement made in the vehicle treated control group (C). The tumor model used in this assay is P388 Leukemia (intraperitoneal) in B6D2F1 (BDF1) mice

[1] abbreviates: dose: 50.0 mg/kg/injection, schedule: Q01DX009 (ip), vehicle: saline with Tween-80.
[2] abbreviates: dose: 75.0 mg/kg/injection, schedule: Q01DX009 (ip), vehicle: saline with Tween-80.
Where [3] appears, read: dose: 100.0 mg/kg/injection, schedule: Q01DX009 (ip), vehicle: saline with Tween-80.
The mark [4] stands for this setting: dose: 200.0 mg/kg/injection, schedule: Q01DX009 (ip), vehicle: saline with Tween-80.
Where [5] appears, read: dose: 400.0 mg/kg/injection, schedule: Q01DX009 (ip), vehicle: saline with Tween-80.
Setting [6] is: dose: 25.0 mg/kg/injection, schedule: Q01DX009 (ip), vehicle: saline with Tween-80.
The mark [7] stands for this setting: dose: 100.0 mg/kg/injection, schedule: Q04DX003 (ip), vehicle: saline with Tween-80.
Where [8] appears, read: dose: 200.0 mg/kg/injection, schedule: Q04DX003 (ip), vehicle: saline with Tween-80.
[9] abbreviates: dose: 100.0 mg/kg/injection, schedule: Q04DX003 (ip), vehicle: Klucel (hydroxypropylcellulose) (HPC).
[10] abbreviates: dose: 200.0 mg/kg/injection, schedule: Q04DX003 (ip), vehicle: Klucel (hydroxypropylcellulose) (HPC).
Setting [11] is: dose: 400.0 mg/kg/injection, schedule: Q04DX003 (ip), vehicle: Klucel (hydroxypropylcellulose) (HPC).

Consider `COc1ccc(C[C@@H]2NC[C@@H](O)[C@@H]2OC(C)=O)cc1`, for which the T/C by setting is: (dose: 6.25 mg/kg/injection, schedule: Q04DX002 (ip), vehicle: saline with Tween-80) 100 % of control; (dose: 12.5 mg/kg/injection, schedule: Q04DX002 (ip), vehicle: saline with Tween-80) 106 % of control; (dose: 22.0 mg/kg/injection, schedule: Q01DX009 (ip), vehicle: saline) 106 % of control; (dose: 25.0 mg/kg/injection, schedule: Q04DX002 (ip), vehicle: saline with Tween-80) 100 % of control; (dose: 33.0 mg/kg/injection, schedule: Q01DX009 (ip), vehicle: saline with Tween-80) 112 % of control; (dose: 33.0 mg/kg/injection, schedule: Q01DX009 (ip), vehicle: saline) 106 % of control. The T/C is, setting by setting: (dose: 44.0 mg/kg/injection, schedule: Q04DX003 (ip), vehicle: saline) 102 % of control; under setting [1], 113 % of control; (dose: 50.0 mg/kg/injection, schedule: Q01DX009 (ip), vehicle: saline) 106 % of control; (dose: 50.0 mg/kg/injection, schedule: Q04DX002 (ip), vehicle: saline with Tween-80) 97 % of control; (dose: 66.0 mg/kg/injection, schedule: Q01DX001 (ip), vehicle: saline) 111 % of control; (dose: 66.0 mg/kg/injection, schedule: Q04DX003 (ip), vehicle: saline) 105 % of control. Besides, the T/C reads like this: under setting [2], 113 % of control; (dose: 100.0 mg/kg/injection, schedule: Q01DX001 (ip), vehicle: saline) 104 % of control; (dose: 100.0 mg/kg/injection, schedule: Q01DX009 (ip), vehicle: saline) 109 % of control; (dose: 100.0 mg/kg/injection, schedule: Q04DX002 (ip), vehicle: saline with Tween-80) 104 % of control; (dose: 100.0 mg/kg/injection, schedule: Q04DX003 (ip), vehicle: saline) 111 % of control; (dose: 113.0 mg/kg/injection, schedule: Q01DX009 (ip), vehicle: saline with Tween-80) 120 % of control. The T/C is 107 % of control (dose: 150.0 mg/kg/injection, schedule: Q01DX001 (ip), vehicle: saline); 110 % of control (dose: 150.0 mg/kg/injection, schedule: Q04DX003 (ip), vehicle: saline); 116 % of control (dose: 169.0 mg/kg/injection, schedule: Q01DX009 (ip), vehicle: saline with Tween-80); 103 % of control (dose: 225.0 mg/kg/injection, schedule: Q01DX001 (ip), vehicle: saline); 105 % of control (dose: 225.0 mg/kg/injection, schedule: Q04DX003 (ip), vehicle: saline); 102 % of control (dose: 338.0 mg/kg/injection, schedule: Q01DX001 (ip), vehicle: saline).

`Cc1cc(=O)cc(C)n1C`: the T/C by setting is: under setting [3], 104 % of control; under setting [4], 100 % of control; under setting [5], 100 % of control.

In the case of `COc1ccc2c(c1)CCC(C)(C#N)C2=O` (stereo unspecified), the T/C is 100 % of control under setting [6], 100 % of control under setting [1] and 104 % of control under setting [3].

`CC[C@H]1CN(C)[C@H]2Cc3c([nH]c4ccccc34)C(=O)C[C@H]1C2C(=O)OC` (stereo partly specified): the T/C was 86 % of control (dose: 0.25 mg/kg/injection, schedule: Q01DX009 (ip), vehicle: other); 86 % of control (dose: 0.5 mg/kg/injection, schedule: Q01DX009 (ip), vehicle: other); 86 % of control (dose: 1.0 mg/kg/injection, schedule: Q01DX009 (ip), vehicle: other); 95 % of control (dose: 2.0 mg/kg/injection, schedule: Q01DX009 (ip), vehicle: other).

Turning to `CCN(C(=O)c1ccc(C(=O)N(CC)c2ccccc2)cc1)c1ccccc1`, the T/C was 100 % of control under setting [7] and 91 % of control under setting [8].

Regarding `O=C(N=C1C=CC(=NC(=O)OCc2ccccc2)C=C1)OCc1ccccc1`, the T/C was 95 % of control under setting [9], 100 % of control under setting [10] and 100 % of control under setting [11].

For `OC1OC2COC(c3ccccc3)OC2C(O)C1O` (stereo unspecified), the T/C is, setting by setting: under setting [2], 107 % of control; (dose: 150.0 mg/kg/injection, schedule: Q01DX009 (ip), vehicle: saline with Tween-80) 94 % of control; (dose: 300.0 mg/kg/injection, schedule: Q01DX009 (ip), vehicle: saline with Tween-80) 91 % of control.

Turning to `O=C(COC1CCCCC1)OC1CCCCC1`, the T/C runs as follows: under setting [6], 100 % of control; under setting [1], 113 % of control; under setting [3], 118 % of control.

Regarding `COC(=O)C(Br)C(Br)c1ccccc1` (stereo unspecified), the T/C under setting [3] is 113 % of control and the T/C under setting [5] is 118 % of control.

On to `O=C(c1ccccc1)c1cc[n+]([O-])cc1`, for which the T/C is, setting by setting: (dose: 75.0 mg/kg/injection, schedule: Q01DX001 (ip), vehicle: saline sonified) 91 % of control; (dose: 150.0 mg/kg/injection, schedule: Q01DX001 (ip), vehicle: saline sonified) 91 % of control.

With `CNc1ccc(OC)cc1`, the T/C by setting is: (dose: 100.0 mg/kg/injection, schedule: Q01DX009 (ip), vehicle: other) 100 % of control; (dose: 200.0 mg/kg/injection, schedule: Q01DX009 (ip), vehicle: other) 104 % of control; (dose: 400.0 mg/kg/injection, schedule: Q01DX009 (ip), vehicle: other) 104 % of control.

Consider `COc1cccc2c1C(=O)c1c(O)c3c(c(O)c1C2=O)C[C@@](O)(/C(C)=N/NC(=O)c1ccccc1)C[C@@H]3OC1CC(N(C)C)C(O)C(C)O1` (stereo partly specified), for which the T/C is 161 % of control (dose: 0.78 mg/kg/injection, schedule: Q01DX009 (ip), vehicle: water); 186 % of control (dose: 1.56 mg/kg/injection, schedule: Q01DX009 (ip), vehicle: water); 236 % of control (dose: 3.13 mg/kg/injection, schedule: Q01DX009 (ip), vehicle: water); 96 % of control (dose: 6.25 mg/kg/injection, schedule: Q01DX009 (ip), vehicle: water).

In the case of `O=[N+]([O-])c1cccc(C=Nc2cccc(C(F)(F)F)c2)c1`, the T/C is 95 % of control (dose: 3.0 mg/kg/injection, schedule: Q01DX009 (ip), vehicle: Klucel (hydroxypropylcellulose) (HPC)); 95 % of control (dose: 6.0 mg/kg/injection, schedule: Q01DX009 (ip), vehicle: Klucel (hydroxypropylcellulose) (HPC)); 100 % of control (dose: 12.0 mg/kg/injection, schedule: Q01DX009 (ip), vehicle: Klucel (hydroxypropylcellulose) (HPC)); 104 % of control under setting [9]; 95 % of control under setting [10]; 95 % of control under setting [11].

In the case of `CC(=O)C(C(c1ccccc1)C1CCCc2ccccc21)N1CCOCC1` (stereo unspecified), the T/C (dose: 100.0 mg/kg/injection, schedule: Q01DX009 (ip), vehicle: Klucel (hydroxypropylcellulose) (HPC)) is 100 % of control; the T/C under setting [9] was 105 % of control; the T/C (dose: 200.0 mg/kg/injection, schedule: Q01DX009 (ip), vehicle: Klucel (hydroxypropylcellulose) (HPC)) was 109 % of control; the T/C under setting [10] was 100 % of control; the T/C (dose: 400.0 mg/kg/injection, schedule: Q01DX009 (ip), vehicle: Klucel (hydroxypropylcellulose) (HPC)) was 104 % of control; the T/C under setting [11] is 100 % of control.

Turning to `Nc1nc([Se])c2ncn(C3OC(CO)C(O)C3O)c2n1` (stereo unspecified), the T/C (dose: 32.0 mg/kg/injection, schedule: Q01DX009 (ip), vehicle: saline) was 100 % of control.

For the molecule `CCC(=O)/C=C/c1ccccc1`, the T/C was 93 % of control under setting [1], 109 % of control under setting [3] and 118 % of control under setting [4].

`C=C(C)C(=O)NCC(=O)Oc1ccc([N+](=O)[O-])cc1`: the T/C under setting [1] was 86 % of control, the T/C under setting [3] is 102 % of control and the T/C under setting [4] was 93 % of control.

On to `CC(C)C1=CC2=CC[C@@H]3[C@](C)(CCC[C@@]3(C)C(=O)O)[C@H]2CC1`, for which the T/C reads like this: under setting [3], 100 % of control; under setting [7], 100 % of control; under setting [4], 100 % of control; under setting [8], 100 % of control; under setting [5], 100 % of control; (dose: 400.0 mg/kg/injection, schedule: Q04DX003 (ip), vehicle: saline with Tween-80) 100 % of control.

(Values after PubChem BioAssay AID328 (DTP/NCI, 2004).)
